The results in this text go back to PubChem BioAssay (NCI).

Test systems include IGROV1 ovarian; HT29 colon; TK-10 renal; NCI-H226 lung; SK-MEL-2 melanoma; NCI-H460 lung; MOLT-4 leukemia; RXF 393 renal; BT-549 breast; MDA-MB-435.
What all share (test): DTP human tumour cell line panel, 48 h

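Five compound concentrations were applied to cells in 96-well plates for 48 hours; endpoints were derived by simple linear interpolation of the resulting dose-response curve. Here, GI50 denotes the concentration required for 50% inhibition of growth. Definition used: TGI = concentration required for complete inhibition of growth.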

Regarding `C=C1CCC2C(C)(CO)C(O)CCC2(C)C1CC(O)C1=CCOC1=O` (stereo not given), the TGI with IGROV1 ovarian, in the assay with HT29 colon, in the assay with TK-10 renal, in the assay with NCI-H226 lung, in the assay with SK-MEL-2 melanoma and with NCI-H460 lung was over 100 µM in each case. The molecule also showed a TGI in the assay with MOLT-4 leukemia of over 100 µM.

`Cn1c(-c2ccccc2)c/c(=N\NS(C)(=O)=O)c2cc(S(=O)(=O)O)ccc21`: the TGI in the assay on IGROV1 ovarian, in the assay on HT29 colon, in the assay with TK-10 renal, in the assay on NCI-H226 lung, in the assay with SK-MEL-2 melanoma and in the assay on NCI-H460 lung was over 100 µM in each case. Further, the TGI with RXF 393 renal and in the assay on MOLT-4 leukemia was over 100 µM each time.

With `COC(=O)c1cc(O)ccc1NC(=O)c1ccc(O)cc1`, the TGI in the assay with IGROV1 ovarian, in the assay on HT29 colon, in the assay with TK-10 renal, in the assay with NCI-H226 lung, in the assay with SK-MEL-2 melanoma and in the assay on NCI-H460 lung was over 100 µM throughout. In the assay on MOLT-4 leukemia, this molecule had a TGI of over 100 µM.

Turning to `O=[N+]([O-])c1ccc(C2N3CCCCC3[C@@H]3c4[nH]c5ccccc5c4CCN23)cc1` (stereo not given in full), the TGI was over 100 µM with IGROV1 ovarian; 16 µM in the assay with HT29 colon; 51.1 µM with TK-10 renal; 33 µM in the assay with SK-MEL-2 melanoma; 40.9 µM in the assay with NCI-H460 lung; 18.9 µM in the assay on RXF 393 renal. The molecule also registered a TGI with MOLT-4 leukemia of 49.6 µM.

Regarding `O=C1CC23CC(=O)CC2(C1)c1ccccc1C3=O` (stereo not given), the TGI in the assay on IGROV1 ovarian, in the assay on HT29 colon, in the assay with TK-10 renal, in the assay with NCI-H226 lung, with SK-MEL-2 melanoma and in the assay on NCI-H460 lung was over 100 µM throughout. Further, the TGI in the assay on RXF 393 renal and in the assay on MOLT-4 leukemia was over 100 µM in each case.

Take `Cn1c(C2CC(C)(C)c3c2c2ccccc2n3C)cc2ccccc21` (stereo not given): the concentration for total growth inhibition (TGI) in the assay with IGROV1 ovarian, in the assay on HT29 colon, in the assay with TK-10 renal, with NCI-H226 lung, with SK-MEL-2 melanoma and in the assay with NCI-H460 lung was over 304 µM throughout. Also, the TGI in the assay on RXF 393 renal and with MOLT-4 leukemia was over 304 µM in each case.

Take `CC1=NN(c2ccccc2)C(=O)C1C(=O)C(=O)Nc1ccc(C)cc1C` (stereo not given): the TGI in the assay on IGROV1 ovarian, with HT29 colon, in the assay with TK-10 renal, in the assay on NCI-H226 lung, in the assay with SK-MEL-2 melanoma and in the assay on NCI-H460 lung was over 100 µM each time. The TGI in the assay on RXF 393 renal and in the assay on MOLT-4 leukemia was over 100 µM in each case.

`COc1cc([C@@H]2c3cc4c(cc3[C@@H](NC(=O)c3ccc([N+](=O)[O-])cc3)C3COC(=O)[C@@H]32)OCO4)cc(OC)c1O` (stereo not given in full): the TGI in the assay with IGROV1 ovarian amounted to 3.44 µM; with HT29 colon, 5.68 µM; in the assay with TK-10 renal it was 5.86 µM; in the assay with NCI-H226 lung, 1.82 µM; in the assay with SK-MEL-2 melanoma, 6.61 µM; in the assay with NCI-H460 lung it was 2.38 µM. In addition, the total growth inhibition concentration (TGI) in the assay with RXF 393 renal stood at 34.8 µM; in the assay on MOLT-4 leukemia, 1.31 µM.

Consider `CC(C)(C)C1CCN(C(=O)c2ccccc2)CC1`, for which the TGI in the assay on IGROV1 ovarian, in the assay with HT29 colon, with TK-10 renal, in the assay with NCI-H226 lung, with SK-MEL-2 melanoma and in the assay with NCI-H460 lung was over 100 µM throughout. The TGI with RXF 393 renal and with MOLT-4 leukemia was over 100 µM in each case.

For `COC(=O)C1CCc2nnc(-c3cccnc3)n21` (stereo not given), the TGI in the assay on IGROV1 ovarian, in the assay with TK-10 renal, with NCI-H226 lung, in the assay with SK-MEL-2 melanoma, with NCI-H460 lung and with RXF 393 renal was over 100 µM each time. Further, the TGI in the assay on MOLT-4 leukemia was over 100 µM.

For `C#Cc1ccc(-n2c(/C=C/c3ccc4ccccc4n3)nc3ncccc3c2=O)cc1`, the GI50 is 0.428 µM in the assay on IGROV1 ovarian; 0.375 µM in the assay with HT29 colon; 0.408 µM in the assay on NCI-H226 lung; 0.306 µM with SK-MEL-2 melanoma; 0.514 µM in the assay on BT-549 breast; 0.776 µM in the assay on NCI-H460 lung. The GI50 with RXF 393 renal is 0.269 µM; with MOLT-4 leukemia, 0.456 µM. Further, the TGI with IGROV1 ovarian was 1.58 µM; in the assay on HT29 colon, 1.13 µM; with NCI-H226 lung, 1.37 µM; with SK-MEL-2 melanoma, 0.785 µM; in the assay with BT-549 breast it was 2.19 µM; in the assay on NCI-H460 lung it was 2.91 µM. In addition, the TGI is 0.792 µM in the assay with RXF 393 renal and over 100 µM with MOLT-4 leukemia.

As for `O=c1[nH]c(C2CCCCC2)nc2cc(Cl)ccc12`, the TGI in the assay with IGROV1 ovarian, in the assay on HT29 colon, with TK-10 renal, with NCI-H226 lung, with SK-MEL-2 melanoma and in the assay on RXF 393 renal was over 100 µM throughout. Further, in the assay on MOLT-4 leukemia, the TGI was over 100 µM.

Turning to `O=C(CCc1cc(-c2ccco2)n(-c2ccc([N+](=O)[O-])cc2[N+](=O)[O-])n1)Nc1ccccc1`, the TGI with IGROV1 ovarian, in the assay with HT29 colon, in the assay with NCI-H226 lung, with SK-MEL-2 melanoma, in the assay with NCI-H460 lung and with RXF 393 renal was over 100 µM throughout. This molecule also returned a TGI in the assay with MOLT-4 leukemia of over 100 µM.

`FC(F)(F)c1ccccc1C=NC12CC3CC(CC(C3)C1)C2`: the TGI in the assay on IGROV1 ovarian, in the assay with HT29 colon, with TK-10 renal, in the assay with NCI-H226 lung, with SK-MEL-2 melanoma and with NCI-H460 lung was over 100 µM each time. Besides, the TGI with RXF 393 renal and in the assay with MOLT-4 leukemia was over 100 µM throughout.

As to `O=C1C=CC(=O)N1CCCCCCCCCCN1C(=O)C=CC1=O`, the GI50 with IGROV1 ovarian was 7.89 µM; in the assay with MDA-MB-435 it was 13.2 µM; in the assay on HT29 colon it was 4.67 µM; in the assay on TK-10 renal it was 22.9 µM; with NCI-H226 lung it was 17.1 µM; in the assay on NCI-H460 lung, 33.3 µM. Further, the GI50 with RXF 393 renal was 3.13 µM; in the assay with MOLT-4 leukemia it was 8.62 µM. The TGI with IGROV1 ovarian was 24.7 µM; in the assay on MDA-MB-435 it was 28.1 µM; with HT29 colon it was 26.7 µM; in the assay on TK-10 renal, 69 µM; in the assay on NCI-H226 lung, 34.4 µM; in the assay on NCI-H460 lung, over 100 µM. For the same molecule, the results for the TGI in the assay on RXF 393 renal and with MOLT-4 leukemia were 11.3 µM and 48.6 µM, respectively.
